Test results as given in ChEMBL document CHEMBL5291721, “A preclinical secondary pharmacology resource illuminates target-adverse drug reaction associations of marketed drugs” (Nat Commun, 2023).

Assays:
Vasopressin V1a receptor = Vasopressin V1a receptor (Homo sapiens, UniProt P37288)
B2 bradykinin receptor = target: T1, B2 bradykinin receptor (Homo sapiens, UniProt P30411)
T1 sequence (P30411 whole entry): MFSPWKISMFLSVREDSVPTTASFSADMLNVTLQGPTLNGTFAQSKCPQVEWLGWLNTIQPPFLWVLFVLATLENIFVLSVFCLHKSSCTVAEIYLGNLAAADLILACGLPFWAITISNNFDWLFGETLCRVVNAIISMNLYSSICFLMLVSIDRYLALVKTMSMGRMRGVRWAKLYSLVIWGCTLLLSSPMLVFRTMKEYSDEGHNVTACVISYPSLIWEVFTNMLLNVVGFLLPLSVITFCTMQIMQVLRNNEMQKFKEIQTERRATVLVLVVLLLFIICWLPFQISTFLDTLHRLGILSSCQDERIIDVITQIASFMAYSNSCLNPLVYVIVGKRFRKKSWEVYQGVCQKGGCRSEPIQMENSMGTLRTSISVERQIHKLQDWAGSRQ

[1] = target: T2, Muscarinic acetylcholine receptor M1 (Homo sapiens, UniProt P11229); type: functional
T2 sequence (P11229 whole entry): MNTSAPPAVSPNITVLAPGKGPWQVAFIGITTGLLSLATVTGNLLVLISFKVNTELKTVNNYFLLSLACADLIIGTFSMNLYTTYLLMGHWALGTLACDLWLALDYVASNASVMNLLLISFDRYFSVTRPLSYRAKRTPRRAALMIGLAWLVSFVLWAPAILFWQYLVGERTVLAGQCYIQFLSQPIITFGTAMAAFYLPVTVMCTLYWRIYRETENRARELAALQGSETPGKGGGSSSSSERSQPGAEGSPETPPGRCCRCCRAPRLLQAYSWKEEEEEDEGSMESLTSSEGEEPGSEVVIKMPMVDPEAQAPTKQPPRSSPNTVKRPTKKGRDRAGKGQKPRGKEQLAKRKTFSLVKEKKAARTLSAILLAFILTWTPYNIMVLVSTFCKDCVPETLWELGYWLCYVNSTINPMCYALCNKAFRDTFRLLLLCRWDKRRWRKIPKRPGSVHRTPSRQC

[2] = target: T3, 5-hydroxytryptamine receptor 1A (Homo sapiens, UniProt P08908); type: functional, cell-based
T3 sequence (P08908 whole entry): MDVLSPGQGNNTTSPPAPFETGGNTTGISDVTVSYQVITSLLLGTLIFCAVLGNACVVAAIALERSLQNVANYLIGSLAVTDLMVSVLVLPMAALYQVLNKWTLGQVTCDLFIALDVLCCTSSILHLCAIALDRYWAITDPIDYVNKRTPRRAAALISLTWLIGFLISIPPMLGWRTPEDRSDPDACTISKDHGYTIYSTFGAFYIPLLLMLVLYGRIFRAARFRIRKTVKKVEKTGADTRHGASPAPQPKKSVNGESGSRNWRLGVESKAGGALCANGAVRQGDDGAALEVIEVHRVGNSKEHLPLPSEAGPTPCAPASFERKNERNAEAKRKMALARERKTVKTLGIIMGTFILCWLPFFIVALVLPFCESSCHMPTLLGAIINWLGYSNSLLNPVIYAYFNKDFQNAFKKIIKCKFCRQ

[3] = target: 5-hydroxytryptamine receptor 2A (Homo sapiens, UniProt P28223); type: functional, cell-based
Melanocortin receptor 3 = Melanocortin receptor 3 (Homo sapiens, UniProt P41968)
Progesterone receptor = target: T4, Progesterone receptor (Homo sapiens, UniProt P06401); type: functional
T4 sequence (P06401 whole entry): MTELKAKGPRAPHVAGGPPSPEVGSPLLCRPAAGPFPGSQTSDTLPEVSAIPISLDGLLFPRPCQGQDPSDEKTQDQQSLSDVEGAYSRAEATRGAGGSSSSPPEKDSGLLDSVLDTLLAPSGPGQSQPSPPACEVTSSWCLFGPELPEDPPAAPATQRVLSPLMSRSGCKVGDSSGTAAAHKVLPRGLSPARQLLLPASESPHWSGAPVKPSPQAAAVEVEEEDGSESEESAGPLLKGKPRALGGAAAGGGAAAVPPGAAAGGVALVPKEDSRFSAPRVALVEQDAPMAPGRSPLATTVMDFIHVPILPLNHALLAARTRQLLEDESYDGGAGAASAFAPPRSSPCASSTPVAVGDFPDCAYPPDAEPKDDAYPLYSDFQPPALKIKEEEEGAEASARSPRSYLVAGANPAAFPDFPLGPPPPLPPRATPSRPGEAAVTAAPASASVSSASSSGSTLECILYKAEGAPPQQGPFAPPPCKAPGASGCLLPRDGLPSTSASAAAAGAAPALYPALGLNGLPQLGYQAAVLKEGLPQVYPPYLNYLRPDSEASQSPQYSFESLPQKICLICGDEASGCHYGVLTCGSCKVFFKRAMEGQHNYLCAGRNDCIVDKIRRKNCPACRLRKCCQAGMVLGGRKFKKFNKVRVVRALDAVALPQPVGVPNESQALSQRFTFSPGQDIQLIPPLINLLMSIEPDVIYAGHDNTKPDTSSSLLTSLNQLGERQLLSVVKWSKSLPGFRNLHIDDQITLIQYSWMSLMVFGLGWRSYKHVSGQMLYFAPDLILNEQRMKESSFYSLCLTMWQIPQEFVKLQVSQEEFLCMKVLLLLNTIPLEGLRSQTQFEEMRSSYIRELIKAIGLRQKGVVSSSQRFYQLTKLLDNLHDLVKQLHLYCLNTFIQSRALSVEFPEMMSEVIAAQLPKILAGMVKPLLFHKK

[4] = target: Sodium-dependent serotonin transporter (Homo sapiens, UniProt P31645)
Histamine H3 receptor = Histamine H3 receptor (Homo sapiens, UniProt Q9Y5N1)
Further: assay procedure not described here.

Histamine H3 receptor, sequence (Q9Y5N1 whole entry): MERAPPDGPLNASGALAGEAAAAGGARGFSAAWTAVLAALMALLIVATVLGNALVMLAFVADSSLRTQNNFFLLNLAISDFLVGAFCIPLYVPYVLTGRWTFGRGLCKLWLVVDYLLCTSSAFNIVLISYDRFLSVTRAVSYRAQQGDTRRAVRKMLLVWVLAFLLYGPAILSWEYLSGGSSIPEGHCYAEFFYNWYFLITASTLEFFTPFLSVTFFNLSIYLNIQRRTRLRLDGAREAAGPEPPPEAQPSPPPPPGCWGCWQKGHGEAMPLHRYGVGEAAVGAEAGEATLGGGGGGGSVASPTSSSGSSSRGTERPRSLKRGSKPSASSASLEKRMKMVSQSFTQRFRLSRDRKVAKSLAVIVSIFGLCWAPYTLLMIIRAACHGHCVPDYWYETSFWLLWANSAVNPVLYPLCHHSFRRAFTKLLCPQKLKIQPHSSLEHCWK
Melanocortin receptor 3, sequence (P41968 whole entry): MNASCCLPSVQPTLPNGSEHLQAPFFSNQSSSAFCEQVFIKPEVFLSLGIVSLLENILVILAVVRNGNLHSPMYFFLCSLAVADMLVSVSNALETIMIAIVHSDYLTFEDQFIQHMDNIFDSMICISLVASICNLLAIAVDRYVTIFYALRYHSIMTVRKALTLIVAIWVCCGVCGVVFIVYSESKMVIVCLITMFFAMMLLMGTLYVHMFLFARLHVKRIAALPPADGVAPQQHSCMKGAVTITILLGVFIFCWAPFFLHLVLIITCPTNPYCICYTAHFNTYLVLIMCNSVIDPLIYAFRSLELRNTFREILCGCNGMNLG
5-hydroxytryptamine receptor 2A, sequence (P28223 whole entry): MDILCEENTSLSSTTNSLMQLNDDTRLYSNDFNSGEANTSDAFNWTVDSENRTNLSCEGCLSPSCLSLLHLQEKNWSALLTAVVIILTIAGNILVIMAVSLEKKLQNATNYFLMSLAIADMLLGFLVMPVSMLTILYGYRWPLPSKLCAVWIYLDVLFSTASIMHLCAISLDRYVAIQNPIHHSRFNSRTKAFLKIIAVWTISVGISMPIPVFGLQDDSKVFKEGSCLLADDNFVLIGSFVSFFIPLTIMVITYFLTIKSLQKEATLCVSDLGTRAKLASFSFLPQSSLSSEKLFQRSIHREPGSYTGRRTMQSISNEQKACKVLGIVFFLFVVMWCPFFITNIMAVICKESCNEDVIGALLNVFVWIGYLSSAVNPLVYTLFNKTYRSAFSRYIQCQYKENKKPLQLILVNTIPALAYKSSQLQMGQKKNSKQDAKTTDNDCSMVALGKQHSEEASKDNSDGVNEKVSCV
Vasopressin V1a receptor, sequence (P37288 whole entry): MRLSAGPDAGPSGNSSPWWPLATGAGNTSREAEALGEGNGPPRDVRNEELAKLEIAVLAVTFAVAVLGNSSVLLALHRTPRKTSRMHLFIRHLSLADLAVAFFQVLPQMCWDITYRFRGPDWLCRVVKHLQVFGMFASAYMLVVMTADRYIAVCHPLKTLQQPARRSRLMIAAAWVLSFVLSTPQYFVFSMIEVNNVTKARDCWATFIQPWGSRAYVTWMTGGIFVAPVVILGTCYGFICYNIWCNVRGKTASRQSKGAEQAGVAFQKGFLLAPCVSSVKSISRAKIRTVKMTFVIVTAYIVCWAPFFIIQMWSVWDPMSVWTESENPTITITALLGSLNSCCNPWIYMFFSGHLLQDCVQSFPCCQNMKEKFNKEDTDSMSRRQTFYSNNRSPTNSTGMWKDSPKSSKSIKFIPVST
Sodium-dependent serotonin transporter, sequence (P31645 whole entry): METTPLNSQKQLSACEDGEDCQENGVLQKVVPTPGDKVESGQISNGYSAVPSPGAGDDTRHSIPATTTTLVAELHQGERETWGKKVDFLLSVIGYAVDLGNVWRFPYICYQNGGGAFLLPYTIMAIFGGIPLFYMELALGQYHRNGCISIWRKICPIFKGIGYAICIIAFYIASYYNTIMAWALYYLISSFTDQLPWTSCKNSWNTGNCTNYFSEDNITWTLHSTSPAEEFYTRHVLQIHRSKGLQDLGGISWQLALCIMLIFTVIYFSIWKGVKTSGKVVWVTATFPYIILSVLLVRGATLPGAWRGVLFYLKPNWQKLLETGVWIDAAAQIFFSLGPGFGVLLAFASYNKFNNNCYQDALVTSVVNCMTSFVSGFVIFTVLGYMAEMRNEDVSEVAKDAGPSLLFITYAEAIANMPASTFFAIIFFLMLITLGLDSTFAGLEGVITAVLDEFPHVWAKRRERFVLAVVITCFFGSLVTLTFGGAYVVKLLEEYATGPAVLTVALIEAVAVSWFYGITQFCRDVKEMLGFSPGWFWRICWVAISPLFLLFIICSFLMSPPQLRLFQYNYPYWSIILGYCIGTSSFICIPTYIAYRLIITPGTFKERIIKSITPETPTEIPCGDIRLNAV

Q: With `C=C1CC[C@@]2(O)[C@H]3Cc4ccc(O)c5c4[C@@]2(CCN3CC2CC2)[C@H]1O5` as the molecule, how does the AC50 (Vasopressin V1a receptor) read?
A: > 30 µM

Q: And the AC50 (B2 bradykinin receptor)?
A: > 30 µM

Q: And the AC50 [1]?
A: > 30 µM

Q: What about the AC50 [2] of the same molecule?
A: > 30 µM

Q: What about the AC50 [3] of the same molecule?
A: > 30 µM

Q: And the AC50 (Melanocortin receptor 3)?
A: > 30 µM

Q: What about the AC50 (Progesterone receptor) of the same molecule?
A: > 30 µM

Q: And the AC50 [4]?
A: > 30 µM

Q: What about the AC50 (Histamine H3 receptor) of the same molecule?
A: > 30 µM

Q: Which AC50 (Vasopressin V1a receptor) does the source give for `CN1C(=O)CC(=O)N(c2ccccc2)c2cc(Cl)ccc21` [CLOBAZAM] here?
A: > 10 µM

Q: And the AC50 (B2 bradykinin receptor)?
A: > 10 µM

Q: What about the AC50 [1] of the same molecule?
A: > 10 µM

Q: And the AC50 [2]?
A: > 10 µM

Q: And the AC50 [3]?
A: > 10 µM

Q: What about the AC50 (Melanocortin receptor 3) of the same molecule?
A: > 10 µM

Q: What about the AC50 (Progesterone receptor) of the same molecule?
A: > 10 µM

Q: And the AC50 [4]?
A: > 10 µM

Q: For `CN1CCC2=C(C1)C(c1ccccc1)c1ccccc12` (stereo unspecified) [PHENINDAMINE], which AC50 (Vasopressin V1a receptor) is on record?
A: > 10 µM

Q: What about the AC50 (B2 bradykinin receptor) of the same molecule?
A: > 10 µM

Q: What about the AC50 [1] of the same molecule?
A: > 10 µM

Q: What about the AC50 [2] of the same molecule?
A: > 10 µM

Q: And the AC50 [3]?
A: > 10 µM

Q: What about the AC50 (Melanocortin receptor 3) of the same molecule?
A: > 10 µM

Q: And the AC50 (Progesterone receptor)?
A: > 30 µM

Q: What about the AC50 [4] of the same molecule?
A: > 30 µM

Q: Which AC50 (Vasopressin V1a receptor) does the source give for `C[C@H]1C[C@@H]2[C@H]([C@@H](O)C[C@@]3(C)[C@H]2CC[C@]3(O)C(=O)COC(=O)CCC(=O)O)[C@@]2(C)C=CC(=O)C=C12` [METHYLPREDNISOLONE HEMISUCCINATE] here?
A: > 30 µM

Q: What about the AC50 (B2 bradykinin receptor) of the same molecule?
A: > 30 µM

Q: And the AC50 [1]?
A: > 30 µM

Q: What about the AC50 [2] of the same molecule?
A: > 30 µM

Q: And the AC50 [3]?
A: > 30 µM

Q: And the AC50 (Melanocortin receptor 3)?
A: > 30 µM

Q: What about the AC50 (Progesterone receptor) of the same molecule?
A: > 30 µM

Q: What about the AC50 [4] of the same molecule?
A: > 30 µM

Q: What about the AC50 (Histamine H3 receptor) of the same molecule?
A: > 30 µM

Q: `Cc1c(Cl)cccc1Nc1ccccc1C(=O)O` [TOLFENAMIC ACID] was tested. Which AC50 (Vasopressin V1a receptor) did it give?
A: > 30 µM

Q: What about the AC50 (B2 bradykinin receptor) of the same molecule?
A: > 30 µM

Q: What about the AC50 [1] of the same molecule?
A: > 30 µM

Q: What about the AC50 [2] of the same molecule?
A: 22 µM

Q: And the AC50 [3]?
A: > 30 µM

Q: And the AC50 (Melanocortin receptor 3)?
A: > 30 µM

Q: And the AC50 (Progesterone receptor)?
A: > 30 µM

Q: And the AC50 [4]?
A: > 30 µM

Q: What about the AC50 (Histamine H3 receptor) of the same molecule?
A: > 30 µM

Q: For `COC(=O)C1=C(C)NC(C)=C(C(=O)OC(C)C)C1c1cccc2nonc12` (stereo unspecified) [ISRADIPINE], which AC50 (Vasopressin V1a receptor) is on record?
A: > 30 µM

Q: What about the AC50 (B2 bradykinin receptor) of the same molecule?
A: > 30 µM

Q: What about the AC50 [1] of the same molecule?
A: > 30 µM

Q: And the AC50 [2]?
A: > 10 µM

Q: What about the AC50 [3] of the same molecule?
A: > 10 µM

Q: And the AC50 (Melanocortin receptor 3)?
A: > 30 µM

Q: And the AC50 (Progesterone receptor)?
A: > 30 µM

Q: And the AC50 [4]?
A: > 30 µM

Q: What does the source list for `CN1CCCN=C1COC(=O)C(O)(c1ccccc1)C1CCCCC1` (stereo unspecified) [OXYPHENCYCLIMINE]?
A: AC50 (Vasopressin V1a receptor): > 10 µM; AC50 (B2 bradykinin receptor): > 10 µM; AC50 [1]: 0.019 µM; AC50 [2]: > 10 µM; AC50 [3]: > 10 µM; AC50 (Melanocortin receptor 3): > 10 µM; AC50 (Progesterone receptor): > 10 µM; AC50 [4]: > 30 µM

Q: For `CC(C)[N+](C)(CCC(C(N)=O)(c1ccccc1)c1ccccc1)C(C)C` [ISOPROPAMIDE], which AC50 (Vasopressin V1a receptor) is on record?
A: > 10 µM

Q: And the AC50 (B2 bradykinin receptor)?
A: > 10 µM

Q: What about the AC50 [1] of the same molecule?
A: 0.013 µM

Q: And the AC50 [2]?
A: > 10 µM

Q: What about the AC50 [3] of the same molecule?
A: > 10 µM

Q: What about the AC50 (Melanocortin receptor 3) of the same molecule?
A: > 10 µM

Q: And the AC50 (Progesterone receptor)?
A: > 10 µM

Q: What about the AC50 [4] of the same molecule?
A: > 10 µM

Q: Which results are given for `CN1CC[C@]23CCCC[C@H]2[C@H]1Cc1ccc(O)cc13` [LEVORPHANOL]?
A: AC50 (Vasopressin V1a receptor): > 10 µM; AC50 (B2 bradykinin receptor): > 10 µM; AC50 [1]: > 30 µM; AC50 [2]: > 10 µM; AC50 [3]: > 10 µM; AC50 (Melanocortin receptor 3): > 10 µM; AC50 (Progesterone receptor): > 10 µM; AC50 [4]: 0.173 µM

Q: Which AC50 (Vasopressin V1a receptor) does the source give for `O=C(O)Cc1cn(-c2ccccc2)nc1-c1ccc(Cl)cc1` [LONAZOLAC] here?
A: > 30 µM

Q: And the AC50 (B2 bradykinin receptor)?
A: > 30 µM

Q: And the AC50 [1]?
A: > 30 µM

Q: What about the AC50 [3] of the same molecule?
A: > 30 µM

Q: What about the AC50 (Melanocortin receptor 3) of the same molecule?
A: > 30 µM

Q: And the AC50 (Progesterone receptor)?
A: > 30 µM

Q: And the AC50 [4]?
A: > 30 µM

Q: What about the AC50 (Histamine H3 receptor) of the same molecule?
A: > 30 µM

Q: Which results are given for `CN1C(=O)CC(c2ccccc2)C1=O` (stereo unspecified) [PHENSUXIMIDE]?
A: AC50 (Vasopressin V1a receptor): > 10 µM; AC50 (B2 bradykinin receptor): > 10 µM; AC50 [1]: > 10 µM; AC50 [3]: > 10 µM; AC50 (Melanocortin receptor 3): > 10 µM; AC50 (Progesterone receptor): > 10 µM; AC50 [4]: > 10 µM; AC50 (Histamine H3 receptor): > 10 µM
